# Test results reported in paper PMC10247784, “Physiological activation of human and mouse bitter taste receptors by bile acids” (Communications Biology, 2023).
# Several values for one entry are separate records, joined by “and”; a condition that tells them apart may be missing. Identical values can stand only once.
# Target: T1, human TAS2R4 (Homo sapiens, UniProt Q9NYW5)
# T1 construct: expressed in transfected cells; host or cells: HEK293T-Gα16gust44
# T1 sequence (Q9NYW5 1-299): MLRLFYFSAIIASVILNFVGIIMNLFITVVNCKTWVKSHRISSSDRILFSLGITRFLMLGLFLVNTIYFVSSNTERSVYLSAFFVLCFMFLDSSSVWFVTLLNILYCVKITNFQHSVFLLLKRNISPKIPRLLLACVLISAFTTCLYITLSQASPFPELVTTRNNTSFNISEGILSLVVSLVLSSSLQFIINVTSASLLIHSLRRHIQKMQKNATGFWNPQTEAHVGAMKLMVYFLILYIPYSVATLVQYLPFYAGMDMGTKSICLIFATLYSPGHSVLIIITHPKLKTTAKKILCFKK
# Assay: Calcium imaging assay (FLIPR), HEK293T-Gα16gust44 cells transfected with human TAS2R4
# Assay type: cell-based
# Procedure, shortened: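 Calcium responses via FLIPR in receptor-transfected HEK293T-Gα16gust44 cells (Fluo-4-AM, 2.5 mM probenecid), after mock-signal subtraction and normalization to baseline and buffer (ΔF/F). Threshold concentration is the lowest dose differing from mock cells at p < 0.01 (Student's t-test), from three biological replicates in duplicate.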
smiles,measurement,setting,value
"C[C@H](CCC(=O)NCCS(=O)(=O)O)[C@H]1CC[C@H]2[C@@H]3[C@H](O)C[C@@H]4C[C@H](O)CC[C@]4(C)[C@H]3C[C@H](O)[C@]12C [Taurocholic Acid, taurocholic acid]",Efficacy = maximal amplitude (ΔF/F),"TAS2R4, bile acids, mean",0.1496
same,"Efficacy (maximal amplitude ΔF/F), individual data points","TAS2R4, bile acids, single replicates, listed as TCA",0.127 and 0.1657 and 0.1561
same,Δ F/F,"TAS2R4, conc. 0,01 mM",0.0134
same,Δ F/F,"TAS2R4, conc. 0,1 mM",0.09538
same,Δ F/F,"TAS2R4, conc. 0,03 mM",0.04001
same,Δ F/F,"TAS2R4, conc. 0,3 mM",0.1496
same,Δ F/F,"TAS2R4, conc. 0,001 mM",0.005857
same,Δ F/F,"TAS2R4, conc. 0,003 mM",0.007034
same,"RLU, fluorescence trace",Time (s) 0,0 RLU
same,"RLU, fluorescence trace",Time (s) 2,-24.6054 RLU
same,"RLU, fluorescence trace",Time (s) 4,12.8274 RLU
same,"RLU, fluorescence trace",Time (s) 6,3.789 RLU
same,"RLU, fluorescence trace",Time (s) 8,-20.122 RLU
same,"RLU, fluorescence trace",Time (s) 12,7.77 RLU
same,"RLU, fluorescence trace",Time (s) 14,-34.8945 RLU
same,"RLU, fluorescence trace",Time (s) 16,-37.677 RLU
same,"RLU, fluorescence trace",Time (s) 18,-48.5281 RLU
same,"RLU, fluorescence trace","Time (s) 18.766 (TCA, TLCA: 18.782)",30.085 RLU
same,"RLU, fluorescence trace","Time (s) 20.781 (TCA, TLCA: 20.782)",9.231 RLU
same,"RLU, fluorescence trace","Time (s) 22.781 (TCA, TLCA: 22.782)",3.151 RLU
same,"RLU, fluorescence trace","Time (s) 24.781 (TCA, TLCA: 24.782)",34.1327 RLU
same,"RLU, fluorescence trace","Time (s) 26.781 (TCA, TLCA: 26.782)",57.6073 RLU
same,"RLU, fluorescence trace","Time (s) 28.781 (TCA, TLCA: 28.782)",122.11 RLU
same,"RLU, fluorescence trace","Time (s) 30.781 (TCA, TLCA: 30.782)",164.035 RLU
same,"RLU, fluorescence trace","Time (s) 32.781 (TCA, TLCA: 32.782)",242.016 RLU
same,"RLU, fluorescence trace","Time (s) 34.781 (TCA, TLCA: 34.782)",272.716 RLU
same,"RLU, fluorescence trace","Time (s) 36.781 (TCA, TLCA: 36.782)",320.809 RLU
same,"RLU, fluorescence trace","Time (s) 38.781 (TCA, TLCA: 38.782)",384.052 RLU
same,"RLU, fluorescence trace","Time (s) 40.781 (TCA, TLCA: 40.782)",404.135 RLU
same,"RLU, fluorescence trace","Time (s) 42.781 (TCA, TLCA: 42.782)",433.94 RLU
same,"RLU, fluorescence trace","Time (s) 44.781 (TCA, TLCA: 44.782)",475.477 RLU
same,"RLU, fluorescence trace","Time (s) 46.781 (TCA, TLCA: 46.782)",493.347 RLU
same,"RLU, fluorescence trace","Time (s) 48.781 (TCA, TLCA: 48.782)",501.503 RLU
same,"RLU, fluorescence trace","Time (s) 50.781 (TCA, TLCA: 50.782)",547.521 RLU
same,"RLU, fluorescence trace","Time (s) 52.781 (TCA, TLCA: 52.782)",553.791 RLU
same,"RLU, fluorescence trace","Time (s) 54.781 (TCA, TLCA: 54.782)",588.235 RLU
same,"RLU, fluorescence trace","Time (s) 56.781 (TCA, TLCA: 56.782)",548.835 RLU
same,"RLU, fluorescence trace","Time (s) 58.781 (TCA, TLCA: 58.782)",588.475 RLU
same,"RLU, fluorescence trace","Time (s) 60.781 (TCA, TLCA: 60.782)",601.608 RLU
same,"RLU, fluorescence trace","Time (s) 62.781 (TCA, TLCA: 62.782)",626.215 RLU
same,"RLU, fluorescence trace","Time (s) 64.781 (TCA, TLCA: 64.782)",626.188 RLU
same,"RLU, fluorescence trace","Time (s) 66.781 (TCA, TLCA: 66.782)",619.641 RLU
same,"RLU, fluorescence trace","Time (s) 68.781 (TCA, TLCA: 68.782)",624.108 RLU
same,"RLU, fluorescence trace","Time (s) 70.781 (TCA, TLCA: 70.782)",638.032 RLU
same,"RLU, fluorescence trace","Time (s) 72.781 (TCA, TLCA: 72.782)",646.123 RLU
same,"RLU, fluorescence trace","Time (s) 74.781 (TCA, TLCA: 74.782)",657.793 RLU
same,"RLU, fluorescence trace","Time (s) 76.781 (TCA, TLCA: 76.782)",666.37 RLU
same,"RLU, fluorescence trace","Time (s) 78.781 (TCA, TLCA: 78.782)",678.287 RLU
same,"RLU, fluorescence trace","Time (s) 80.781 (TCA, TLCA: 80.782)",665.284 RLU
same,"RLU, fluorescence trace","Time (s) 82.781 (TCA, TLCA: 82.782)",655.873 RLU
same,"RLU, fluorescence trace","Time (s) 84.781 (TCA, TLCA: 84.782)",679.941 RLU
same,"RLU, fluorescence trace","Time (s) 86.781 (TCA, TLCA: 86.782)",648.406 RLU
same,"RLU, fluorescence trace","Time (s) 88.781 (TCA, TLCA: 88.782)",644.228 RLU
same,"RLU, fluorescence trace","Time (s) 90.781 (TCA, TLCA: 90.782)",650.88 RLU
same,"RLU, fluorescence trace","Time (s) 92.781 (TCA, TLCA: 92.782)",631.638 RLU
same,"RLU, fluorescence trace","Time (s) 94.781 (TCA, TLCA: 94.782)",665.026 RLU
same,"RLU, fluorescence trace","Time (s) 96.781 (TCA, TLCA: 96.782)",673.234 RLU
same,"RLU, fluorescence trace","Time (s) 98.781 (TCA, TLCA: 98.782)",653.956 RLU
same,"RLU, fluorescence trace","Time (s) 100.781 (TCA, TLCA: 100.782)",661.771 RLU
same,"RLU, fluorescence trace","Time (s) 102.781 (TCA, TLCA: 102.782)",636.296 RLU
same,"RLU, fluorescence trace","Time (s) 104.781 (TCA, TLCA: 104.782)",641.127 RLU
same,"RLU, fluorescence trace","Time (s) 106.781 (TCA, TLCA: 106.782)",615.791 RLU
same,"RLU, fluorescence trace","Time (s) 108.781 (TCA, TLCA: 108.782)",618.091 RLU
same,"RLU, fluorescence trace","Time (s) 110.781 (TCA, TLCA: 110.782)",644.691 RLU
same,"RLU, fluorescence trace","Time (s) 112.781 (TCA, TLCA: 112.782)",640.87 RLU
same,"RLU, fluorescence trace","Time (s) 114.781 (TCA, TLCA: 114.782)",609.041 RLU
same,"RLU, fluorescence trace","Time (s) 116.781 (TCA, TLCA: 116.782)",616.307 RLU
same,"RLU, fluorescence trace","Time (s) 118.781 (TCA, TLCA: 118.782)",584.502 RLU
same,"RLU, fluorescence trace","Time (s) 120.781 (TCA, TLCA: 120.782)",602.866 RLU
same,"RLU, fluorescence trace","Time (s) 122.781 (TCA, TLCA: 122.782)",581.164 RLU
same,"RLU, fluorescence trace","Time (s) 124.781 (TCA, TLCA: 124.782)",578.218 RLU
same,"RLU, fluorescence trace","Time (s) 126.781 (TCA, TLCA: 126.782)",564.916 RLU
same,"RLU, fluorescence trace","Time (s) 128.781 (TCA, TLCA: 128.782)",590.827 RLU
same,"RLU, fluorescence trace","Time (s) 130.781 (TCA, TLCA: 130.782)",571.073 RLU
same,"RLU, fluorescence trace","Time (s) 132.781 (TCA, TLCA: 132.782)",555.387 RLU
same,"RLU, fluorescence trace","Time (s) 134.781 (TCA, TLCA: 134.782)",548.858 RLU
same,"RLU, fluorescence trace","Time (s) 136.781 (TCA, TLCA: 136.782)",535.742 RLU
same,"RLU, fluorescence trace",Time (s) 137.547,524.559 RLU
same,"RLU, fluorescence trace",Time (s) 143.547,525.352 RLU
same,"RLU, fluorescence trace",Time (s) 149.547,486.955 RLU
same,"RLU, fluorescence trace",Time (s) 155.547,493.52 RLU
same,"RLU, fluorescence trace",Time (s) 161.547,446.448 RLU
same,"RLU, fluorescence trace",Time (s) 167.547,435.019 RLU
same,"RLU, fluorescence trace",Time (s) 173.547,386.716 RLU
same,"RLU, fluorescence trace",Time (s) 179.547,393.434 RLU
same,"RLU, fluorescence trace",Time (s) 185.547,372.463 RLU
same,"RLU, fluorescence trace",Time (s) 191.547,357.243 RLU
same,"RLU, fluorescence trace",Time (s) 197.547,314.74 RLU
same,"RLU, fluorescence trace",Time (s) 203.547,318.63 RLU
same,"RLU, fluorescence trace",Time (s) 209.547,306.856 RLU
same,"RLU, fluorescence trace",Time (s) 215.547,260.931 RLU
same,"RLU, fluorescence trace",Time (s) 221.547,241.962 RLU
same,"RLU, fluorescence trace",Time (s) 227.547,290.972 RLU
same,"RLU, fluorescence trace",Time (s) 233.547,269.304 RLU
same,"RLU, fluorescence trace",Time (s) 239.547,267.596 RLU
same,"RLU, fluorescence trace",Time (s) 245.547,219.689 RLU
same,"RLU, fluorescence trace",Time (s) 293.547,189.99 RLU
same,"RLU, fluorescence trace",Time (s) 299.547,175.107 RLU
same,"RLU, fluorescence trace",Time (s) 305.547,192.603 RLU
same,"RLU, fluorescence trace",Time (s) 311.547,188.074 RLU
same,"RLU, fluorescence trace",Time (s) 317.547,199.388 RLU
same,"RLU, fluorescence trace",Time (s) 323.547,170.101 RLU
same,"RLU, fluorescence trace",Time (s) 329.547,196.926 RLU
same,"RLU, fluorescence trace",Time (s) 335.547,162.738 RLU
same,"RLU, fluorescence trace",Time (s) 341.547,164.861 RLU
same,"RLU, fluorescence trace",Time (s) 347.547,156.987 RLU
same,"RLU, fluorescence trace",Time (s) 353.547,175.115 RLU
same,"RLU, fluorescence trace",Time (s) 359.547,151.684 RLU
same,Activation threshold concentration TAS2R4,lowest concentration with significantly increased fluorescence vs empty vector (p < 0.01),100 µM
